In brackets after ≈: the same amount, converted by molar mass.

The subject of one data set is MIA PaCa-2. Nature of the data set: Cytotoxicity against human MIAPaCa2 cells after 7 days by MTT assay. It is filed as functional. The note with it: MIA PaCa-2, 168 h, read-out: ED50 (the source's name). On the technique in general: Tetrazolium assays rely on reduction of a dye to a coloured formazan, in cell work by metabolically active cells.
The nature of data set [1]: Toxicity against brine shrimp. It counts as organism-based. The note with it: artemia, in vivo.
For another data set, the system named is PC-3. The experiment in a line: Cytotoxicity against human PC3 cells after 7 days by MTT assay. It is filed as functional. The note with it: PC-3, 168 h, read-out: ED50 (the source's name).
In another data set the test system is A498. The experiment in a line: Cytotoxicity against human A498 cells after 7 days by MTT assay. The note with it: A498, 168 h, read-out: ED50 (the source's name). It counts as functional.

`CCCCCCCCCCCC(=O)OCC(O)CO` (stereo unspecified) [GLYCEROL MONOLAURATE]: the results for the EC50 with MIA PaCa-2, with PC-3 and in the data set with A498 were 2.33 µg/mL (≈ 8.49 µM), 23.3 µg/mL (≈ 84.8 µM) and 3.77 µg/mL (≈ 13.7 µM), respectively. In data set [1], this compound registered an LC50 of 79.2 µg/mL (≈ 289 µM).
Turning to `CCCCCCCCCCCCCC(=O)OCC(O)CO` (stereo unspecified), the EC50 in the data set with MIA PaCa-2 was found to be 1.87 µg/mL (≈ 6.18 µM); with PC-3, 8.84 µg/mL (≈ 29.2 µM); in the data set with A498, 3.58 µg/mL (≈ 11.8 µM). Further, in data set [1], the LC50 was found to be 53.3 µg/mL (≈ 176 µM).
In the case of `COc1cccc2c1C(=O)c1c(O)c3c(c(O)c1C2=O)C[C@@](O)(C(=O)CO)C[C@@H]3O[C@H]1C[C@H](N)[C@H](O)[C@H](C)O1` [DOXORUBICIN], the EC50 in the data set with MIA PaCa-2 is 0.0392 µg/mL (≈ 0.0721 µM); in the data set with PC-3, 0.0119 µg/mL (≈ 0.0219 µM); in the data set with A498, 0.0122 µg/mL (≈ 0.0224 µM).

By LC50 is commonly meant the concentration that kills 50% of the test population. Low values mean a more lethal substance, high ones a less lethal substance.

The values are drawn from ChEMBL document CHEMBL1145695, “Biologically active acylglycerides from the berries of saw-palmetto (Serenoa repens)” (J Nat Prod, 1997).
